{"source": "patent US10815460B2", "about": "“Three-dimensional differentiation of epiblast spheroids to kidney organoids models stage-specific epithelial physiology, morphogenesis, and disease” (THE BRIGHAM AND WOMEN'S HOSPITAL, INC., priority 2015, dated 2020)", "format_in_all_cases": "cell-based, human", "key": {"hPSC spheroids": {"test_system": "hPSC spheroids", "assay": "hPSC spheroid cavity formation (lumenogenesis) in 3D sandwich culture", "source_text": "Cell lines included H9 (WA09), BJ, HDFn, hLR5, hfib2-iPS4, and hfib2-iPS5 (human) and J1, R1, and v6 (mouse). Cells were maintained feeder-free on 3% Reduced Growth Factor GelTrex™ (Life Technologies) for at least one passage in media (mTeSR1 for hPSCs; […] supplement+2i in for mESCs; hESC conditioned media (CM)+leukemia inhibitory factor (LIF)+dox for hLR5 iPSCs) and dissociated with Accutase® or TrypLE™. LD-iPSCs were derived from native hLR5 iPSCs by withdrawing LIF and doxycycline and substituting with FGF2. For thin gel sandwich colonies, cells were plated at 60,000 (primed) or 30,000 (native) cells/well of a 24-well plate or 4-well chamber slide pre-coated with GelTrex™ in media supplemented with 10 μM Rho-kinase inhibitor Y27632 (StemGent). The following day the media was replaced with 500 μL 1.5% GelTrex™ in mTeSR1. Media was changed after 24 hours. […]\nFor fluorescence intensity quantifications, images were taken in a single imaging session and at identical exposures and processed identically. The number of cavitated colonies (ellipsoid with lumen) versus flat colonies (non-ellipsoid or without a lumen) was scored manually in phase contrast images of living cells, in which lumens were discerned more easily than in fixed samples. For apoptosis, cleaved caspase-3 expression was scored manually, confirmed by nuclear condensation, and divided by the total number of nuclei per wide-field epifluorescent image. […] For each colony, the summed ZO-1 expressing area was expressed as a percentage of the total surface area and then averaged. To quantify intensities, line scans of equal length were drawn through randomly selected structures imaged with identical exposures to obtain raw fluorescence values in NIS Elements software (Nikon). […] For CHIR-induced differentiation, […] individual cells were identified in low-magnification immunofluorescence images using Cell Profiler 2.0 and fluorescence intensities were measured automatically. […] Immunoblots were quantified using the ImageJ Gel Analyzer. […]"}, "tubular organoids": {"test_system": "tubular organoids", "assay": "Transport of fluorescent cargoes in tubular organoids", "experimental": "(§1) To test permeability, media was supplemented with 20 mM HEPES plus Lucifer Yellow™ carbohydrazide potassium salt (Invitrogen, 38 μM) and Rhodamine-8 isothiocyanate dextran (Sigma, 0.5 μM), and imaged by confocal microscopy. For microinjection, 5 μM rhodamine-conjugated dextran solution in mTeSR1 was diluted 1:1 with Phenol Red Solution (0.5%, Sigma) for visualization. 2 nl was microinjected via a pulled glass capillary microneedle on a Nanoject-2 micromanipulator, and monitored in real-time by wide-field epifluorescence. For TEER, 50,000 hPSCs were plated on 24-well transwell plates (Corning) pre-coated with dilute […]™. […] TEER was measured using an EVOM 2™ device (World Precision Instruments).\nas §1, with “Rhodamine-B” for “Rhodamine-8”, “0.5” for “0.5 μM),”, “5” for “5 μM”"}, "hPSCs": {"test_system": "hPSCs", "assay": "BRY immunofluorescence in hPSC cultures treated with CHIR in mTeSR1", "settings": "5˜M CHIR, 3D versus 2D cultures plated side-by-side", "source_text": "FIG. 2. Cavitated spheroids represent epiblast. (a) Schematic of serial passaging experiment. (b) Representative brightfield images of hPSCs in 3D cultures which were dissociated (colored frames) and passaged (matching colored arrows). Dashed arrows represent serial passages in the 3D condition. […] (c) Hematoxylin and eosin-stained sections of teratomas generated from hPSC serial 3D passages p3, p6, and p9 showing pigmented epithelium (ectoderm), cartilage (mesoderm), and glandular epithelium (endoderm). (d) Cell number (average of duplicate counts for each time point, or AVG of all time points) in 2D and 3D cultures 72 hours after plating. […] (h) Morphology and (i) quantification (n=3) of hPSC colonies cultured in mTeSR1 plus CHIR, compared to controls in mTeSR1 alone. […]\nFor fluorescence intensity quantifications, images were taken in a single imaging session and at identical exposures and processed identically. The number of cavitated colonies (ellipsoid with lumen) versus flat colonies (non-ellipsoid or without a lumen) was scored manually in phase contrast images of living cells, in which lumens were discerned more easily than in fixed samples. For apoptosis, cleaved caspase-3 expression was scored manually, confirmed by nuclear condensation, and divided by the total number of nuclei per wide-field epifluorescent image. […] Immunoblots were quantified using the ImageJ Gel Analyzer. […]"}, "epiblast spheroids": {"test_system": "epiblast spheroids", "assay": "Epiblast spheroids treated with titrations of cisplatin and gentamicin (KIM-1, toxicity)", "source_text": "FIG. 20. […] Scale bars, 50 μm.\n(§2) FIG. 27. […] (a) Co-localization of KIM-1 antibody AKG7 with LTL or (b) with a second KIM-1 antibody (KIMlab2). […] (e) Phase contrast time course of tubules in culture. After 120 days of culture (d120), tubules were fixed and stained for LTL. (f) Whole well of a 96-well plate showing kidney organoids. Scale bars, 50 μm. Error bars, s.e.m."}, "kidney organoids": {"test_system": "kidney organoids", "assay": "KIM-1 induction in kidney organoids treated with nephrotoxic drugs", "source_text": "as §2"}}, "note": "“Also recorded” adds a separate entry of the source."}
{"compound": "protamine sulfate [PS]", "values": [{"measurement": "3D cavity formation", "setting": "hPSC spheroids; 8 μg/ml protamine sulfate", "value": "strongly inhibited 3D cavity formation"}, {"measurement": "podocalyxin localization", "setting": "hPSC spheroids; 8 μg/ml protamine sulfate", "value": "mislocalization of podocalyxin to dispersed patches"}]}
{"compound": "C/C1=C/C(=O)O[C@@H]2C[C@@H](CC[C@H](C)/C=C\\CC1)O[C@@](O)([C@@H]1CSC(=O)N1)C2", "note": "[latrunculin (Lat)B, Latrunculin B]", "values": [{"measurement": "effect on RD accumulation in tubular organoids", "setting": "tubular organoids; co-incubation, 2 μM LatB", "value": "significantly reduced RD accumulation"}]}
{"compound": "Cc1c[nH]c(-c2cnc(NCCNc3ccc(C#N)cn3)nc2-c2ccc(Cl)cc2Cl)n1", "note": "[CHIR]", "values": [{"measurement": "BRY expression", "setting": "hPSCs", "value": "induced higher levels of BRY expression in 3D cultures than in 2D cultures"}, {"measurement": "spheroid formation", "setting": "hPSC spheroids; CHIR added at the time of sandwiching, in mTeSR1", "value": "inhibited spheroid formation in a dose-dependent manner"}]}
{"compound": "O=C(O)CN(CCN(CC(=O)O)CC(=O)O)CC(=O)O", "note": "[EDTA]", "values": [{"measurement": "luminal RD signal intensity in loaded organoids", "setting": "tubular organoids; 0.5 mM EDTA for one hour", "value": "decreased"}]}
{"compound": "gentamicin", "values": [{"measurement": "sensitivity of epiblast spheroids to drug", "setting": "epiblast spheroids", "value": "exhibited dose-dependent sensitivity"}, {"measurement": "KIM-1 upregulation in epiblast spheroids", "setting": "epiblast spheroids; any dose including 5 mM gentamicin", "value": "did not upregulate KIM-1; also recorded: No KIM-1 expression is observed"}, {"measurement": "KIM-1 expression in organoid tubules", "setting": "kidney organoids; increasing concentrations, 36-48 hours, immunofluorescence", "value": "expressed apical kidney injury molecule-1 (KIM-1); also recorded: observed at moderate, sub-toxic doses"}, {"measurement": "concentration sufficient to induce KIM-1 in kidney organoids", "setting": "kidney organoids; kidney organoids", "value": "~5000", "unit": "µM"}]}
